Test [1] relates to Pseudotyped HCV GT1b particles (HCVpp), entry into Huh7-high CD81 cells. Briefly: microbe, parasite or virus in culture. It counts as cell-based, HCV GT1b Con1 strain. The conditions noted are these: Hepatitis C virus, GT1B, 72 h, read-out: HCVpp GT-1b (EC50, μM).
The test system of test [2] is pseudotyped VSV G particles (VSVpp) in Huh7-high CD81 cells. The test can be described thus: microbe, parasite or virus in culture. It counts as cell-based, vesicular stomatitis virus. The following applies: Vesicular stomatitis virus, 72 h, read-out: VSVpp (EC50, μM).

With `Nc1nc(Nc2ccc(-c3ccccc3)c(C(F)(F)F)c2)n[nH]1` [Compound 149, N*3*-(2-Trifluoromethyl-biphenyl-4-yl)-1H-[1,2,4]triazole-3,5-diamine], the concentration giving a half-maximal response (EC50) in test [1] worked out at 0.581 µM; in test [2], 29.2 µM.

`Nc1nc(Nc2ccc(-c3ccccc3F)c(C(F)(F)F)c2)n[nH]1` [Compound 150, N*3*-(2′-Fluoro-2-trifluoromethyl-biphenyl-4-yl)-1H-[1,2,4]triazole-3,5-diamine]: the concentration giving a half-maximal response (EC50) in test [1] was 0.866 µM; in test [2], 21.3 µM.

For `Nc1nc(Nc2ccc(-c3ccc(F)cc3)c(C(F)(F)F)c2)n[nH]1` [Compound 151, N*3*-(4′-Fluoro-2-trifluoromethyl-biphenyl-4-yl)-1H-[1,2,4]triazole-3,5-diamine], the results for the EC50 in test [1] and in test [2] were 0.356 µM and 26.5 µM, respectively.

Turning to `Nc1nc(Nc2ccc(-c3ccc(F)c(F)c3)c(C(F)(F)F)c2)n[nH]1` [Compound 152, N*3*-(3′,4′-Difluoro-2-trifluoromethyl-biphenyl-4-yl)-1H-[1,2,4]triazole-3,5-diamine], the 50% effective concentration (EC50) stood at 0.575 µM in test [1] and 20.4 µM in test [2].

As for `Nc1nc(Nc2ccc(-c3ccccc3Cl)c(C(F)(F)F)c2)n[nH]1` [Compound 153, N*3*-(2′-Chloro-2-trifluoromethyl-biphenyl-4-yl)-1H-[1,2,4]triazole-3,5-diamine], the values for the EC50 in test [1] and in test [2] were 1.81 µM and 9.61 µM, respectively.

As for `CS(=O)(=O)c1ccc(-c2ccc(Nc3n[nH]c(N)n3)cc2Cl)cc1` [Compound 154, N*3*-(2-Chloro-4′-methanesulfonyl-biphenyl-4-yl)-1H-[1,2,4]triazole-3,5-diamine], the results for the EC50 in test [1] and in test [2] were 2.47 µM and 16.4 µM, respectively.

With `Nc1nc(Nc2ccc(-c3ccccc3Cl)c(Cl)c2)n[nH]1` [Compound 155, N*3*-(2,2′-Dichloro-biphenyl-4-yl)-1H-[1,2,4]triazole-3,5-diamine], the values for the EC50 in test [1] and in test [2] were 1.66 µM and 7.46 µM, respectively.

For the compound `CSc1ccc(-c2ccc(Nc3n[nH]c(N)n3)cc2Cl)c(F)c1` [Compound 156, N*3*-(2-Chloro-2′-fluoro-4′-methylsulfanyl-biphenyl-4-yl)-1H-[1,2,4]triazole-3,5-diamine], the 50% effective concentration (EC50) in test [1] was 3.77 µM; in test [2], 11.3 µM.

With `CS(=O)(=O)c1ccc(-c2ccc(Nc3n[nH]c(N)n3)cc2Cl)c(F)c1` [Compound 157, N3-(2-chloro-2′-fluoro-4′-(methylsulfonyl)biphenyl-4-yl)-1H-1,2,4-triazole-3,5-diamine], the figures for the EC50 in test [1] and in test [2] were 1.33 µM and 5.16 µM, respectively.

On to `NC(=O)c1cccc(-c2c(Cl)cc(Nc3n[nH]c(N)n3)cc2Cl)c1` [Compound 158, 4′-(5-amino-1H-1,2,4-triazol-3-ylamino)-2′,6′-dichlorobiphenyl-3-carboxamide], for which the concentration giving a half-maximal response (EC50) in test [1] is 0.539 µM; in test [2] it was > 10 µM.

Regarding `Nc1nc(Nc2cc(Cl)c(-c3ccc(S(=O)(=O)NCCO)cc3)c(Cl)c2)n[nH]1` [Compound 160, 4′-(5-Amino-1H-[1,2,4]triazol-3-ylamino)-2′,6′-dichloro-biphenyl-4-sulfonic acid (2-hydroxy-ethyl)-amide], the half-maximal effective concentration (EC50) in test [1] came out at 0.063 µM; in test [2], 10.6 µM.

Consider `Nc1nc(Nc2cc(Cl)c(-c3ccc(S(=O)(=O)NCCO)cc3)c(C(F)(F)F)c2)n[nH]1` [Compound 161, 4′-(5-Amino-1H-[1,2,4]triazol-3-ylamino)-2′-chloro-6′-trifluoromethyl-biphenyl-4-sulfonic acid (2-hydroxy-ethyl)-amide], for which the results for the EC50 in test [1] and in test [2] were 0.058 µM and 26.8 µM, respectively.

On to `Nc1nc(Nc2cc(Cl)c(-c3ccc(S(=O)(=O)CCO)cc3)c(C(F)(F)F)c2)n[nH]1` [Compound 162, 2-[4′-(5-Amino-1H-[1,2,4]triazol-3-ylamino)-2′-chloro-6′-trifluoromethyl-biphenyl-4-sulfonyl]-ethanol], for which the EC50 in test [1] was 0.126 µM; in test [2], > 10 µM.

In the case of `COc1cc(-c2c(Cl)cc(Nc3n[nH]c(N)n3)cc2C(F)(F)F)ccc1S(=O)(=O)NC1CCN(C(=O)OC(C)(C)C)CC1` [Compound 163, tert-butyl 4-(4′-(5-amino-1H-1,2,4-triazol-3-ylamino)-2′-chloro-3-methoxy-6′-(trifluoromethyl)biphenyl-4-ylsulfonamido)piperidine-1-carboxylate], the 50% effective concentration (EC50) in test [1] was 0.005 µM; in test [2], > 10 µM.

`CC(C)(C)NS(=O)(=O)c1ccc(-c2c(Cl)cc(Nc3n[nH]c(N)n3)cc2Cl)cc1` [Compound 164, 4′-(5-amino-1H-1,2,4-triazol-3-ylamino)-N-tert-butyl-2′,6′-dichlorobiphenyl-4-sulfonamide]: the 50% effective concentration (EC50) was determined as 0.004 µM in test [1] and 7.06 µM in test [2].

Turning to `CC(C)(NS(=O)(=O)c1ccc(-c2c(Cl)cc(Nc3n[nH]c(N)n3)cc2C(F)(F)F)cc1)C(F)(F)F` [Compound 165, 4′-(5-amino-1H-1,2,4-triazol-3-ylamino)-2′-chloro-N-(1,1,1-trifluoro-2-methylpropan-2-yl)-6′-(trifluoromethyl)biphenyl-4-sulfonamide], the EC50 in test [1] is 0.009 µM; in test [2] it was > 10 µM.

In the case of `COc1cc(-c2c(Cl)cc(Nc3n[nH]c(N)n3)cc2C(F)(F)F)ccc1S(=O)(=O)N[C@H]1CC[C@H](O)CC1` [Compound 167, 4′-(5-amino-1H-1,2,4-triazol-3-ylamino)-2′-chloro-N-(trans-4-hydroxycyclohexyl)-3-methoxy-6′-(trifluoromethyl)biphenyl-4-sulfonamide], the 50% effective concentration (EC50) in test [1] was 0.009 µM; in test [2] it was > 10 µM.

Take `Nc1nc(Nc2cc(Cl)c(-c3ccc(S(=O)(=O)NC4CC4)cc3)c(C(F)(F)F)c2)n[nH]1` [Compound 169, 4′-(5-amino-1H-1,2,4-triazol-3-ylamino)-2′-chloro-N-cyclopropyl-6′-(trifluoromethyl)biphenyl-4-sulfonamide]: the 50% effective concentration (EC50) in test [1] stood at 0.011 µM; in test [2], 3.55 µM.

Consider `Nc1nc(Nc2cc(Cl)c(-c3ccc(S(N)(=O)=O)cc3)c(C(F)(F)F)c2)n[nH]1` [Compound 171, 4′-(5-amino-1H-1,2,4-triazol-3-ylamino)-2′-chloro-6′-(trifluoromethyl)biphenyl-4-sulfonamide], for which the results for the EC50 in test [1] and in test [2] were 0.028 µM and 5.23 µM, respectively.

Consider `Nc1nc(Nc2cc(Cl)c(-c3ccc(S(=O)(=O)NC4CC(O)C4)cc3)c(C(F)(F)F)c2)n[nH]1` (centres unmarked) [Compound 172, 4′-(5-amino-1H-1,2,4-triazol-3-ylamino)-2′-chloro-N-(3-hydroxycyclobutyl)-6′-(trifluoromethyl)biphenyl-4-sulfonamide], for which the EC50 in test [1] is 0.032 µM; in test [2], 45.1 µM.

For the compound `Nc1nc(Nc2cc(Cl)c(-c3ccc(S(=O)(=O)N[C@H]4C[C@@H](O)C4)cc3)c(C(F)(F)F)c2)n[nH]1` [Compound 174, 4′-(5-amino-1H-1,2,4-triazol-3-ylamino)-2′-chloro-N-(cis-3-hydroxycyclobutyl)-6′-(trifluoromethyl)biphenyl-4-sulfonamide], the EC50 in test [1] was 0.038 µM; in test [2], > 10 µM.

In the case of `COc1ccc(-c2c(Cl)cc(Nc3n[nH]c(N)n3)cc2C(F)(F)F)cc1S(=O)(=O)NCCO` [Compound 175, 4′-(5-amino-1H-1,2,4-triazol-3-ylamino)-2′-chloro-N-(2-hydroxyethyl)-4-methoxy-6′-(trifluoromethyl)biphenyl-3-sulfonamide], the results for the 50% effective concentration (EC50) in test [1] and in test [2] were 0.018 µM and > 10 µM, respectively.

The record behind these values is patent publication US9693997B2, “Antiviral compounds” (priority 2013, dated 2017).
